The text below walks through data of patent publication US9115092B2, “Substituted quinazoline and pyrido-pyrimidine derivatives” (Asana Biosciences, LLC, priority 2010, dated 2015).

One experiment concerns the target T1, mTOR kinase (Homo sapiens, UniProt P42345).
T1 construct: purchased Millipore, USA
Nature of the experiment: mTOR kinase TR-FRET assay. It is filed as biochemical. Conditions: read-out: mTO R. Summed up: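 TR-FRET read-out (340 nm excitation, 615/665 nm emission) of Thr389 phosphorylation of a ULight-labeled p70 S6K peptide (50 nM) by mTOR, 20 μM ATP, 60 min room temperature after 60 min compound preincubation. Buffer HEPES pH 7.5 with MnCl2, EGTA; IC50 by sigmoidal dose-response.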

Experiment [1] has as its target T2, PI3Kα (wild-type), P110/P85α (Homo sapiens, UniProt P42336).
T2 construct: made in house; host or cells: SF9 insect cells
Put plainly: PI3 Kinase TR-FRET assay, PI3Kα (wild-type). It is filed as biochemical. Summed up:
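TR-FRET read-out of PIP3 formation via biotin-PIP3 displacement (665/615 nm ratio) gave IC50 curves. Enzyme: 5 ng wild-type P110/P85α from Sf9 cells, 60 min RT with compound and PIP2 (MgCl2 40 mM, DTT 5 mM), then 30 min RT kinase reaction at 10 μM ATP and 10 μM PIP2.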

T2 sequence (P42336 whole entry): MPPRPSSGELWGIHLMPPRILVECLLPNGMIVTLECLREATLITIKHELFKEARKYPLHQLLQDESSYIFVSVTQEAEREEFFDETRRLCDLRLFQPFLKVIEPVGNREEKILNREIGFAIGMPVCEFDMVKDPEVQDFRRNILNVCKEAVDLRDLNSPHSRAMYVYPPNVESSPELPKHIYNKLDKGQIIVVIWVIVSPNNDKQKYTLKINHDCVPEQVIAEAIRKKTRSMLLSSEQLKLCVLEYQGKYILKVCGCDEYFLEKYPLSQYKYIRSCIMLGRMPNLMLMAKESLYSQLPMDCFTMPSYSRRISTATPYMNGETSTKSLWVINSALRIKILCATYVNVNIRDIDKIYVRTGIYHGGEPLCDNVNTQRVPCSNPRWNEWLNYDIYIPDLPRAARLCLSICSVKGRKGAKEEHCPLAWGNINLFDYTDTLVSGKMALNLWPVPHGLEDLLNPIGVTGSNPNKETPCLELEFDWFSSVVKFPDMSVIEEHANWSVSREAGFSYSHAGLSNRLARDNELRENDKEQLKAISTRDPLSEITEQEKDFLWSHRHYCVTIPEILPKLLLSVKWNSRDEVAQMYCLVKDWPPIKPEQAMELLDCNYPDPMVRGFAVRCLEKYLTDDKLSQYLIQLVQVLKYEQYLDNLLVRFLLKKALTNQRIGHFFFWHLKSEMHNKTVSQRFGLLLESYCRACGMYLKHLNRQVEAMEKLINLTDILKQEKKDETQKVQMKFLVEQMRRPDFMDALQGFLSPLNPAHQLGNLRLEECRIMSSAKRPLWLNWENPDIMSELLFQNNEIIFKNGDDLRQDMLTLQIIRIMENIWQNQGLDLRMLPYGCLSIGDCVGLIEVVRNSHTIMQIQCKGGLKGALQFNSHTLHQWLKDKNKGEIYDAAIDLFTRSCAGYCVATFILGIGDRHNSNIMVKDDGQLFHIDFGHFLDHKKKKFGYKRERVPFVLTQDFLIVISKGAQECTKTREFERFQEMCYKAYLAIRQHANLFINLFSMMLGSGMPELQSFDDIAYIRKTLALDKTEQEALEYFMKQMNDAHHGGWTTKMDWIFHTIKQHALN
T2 sequence (P27986 whole entry partner): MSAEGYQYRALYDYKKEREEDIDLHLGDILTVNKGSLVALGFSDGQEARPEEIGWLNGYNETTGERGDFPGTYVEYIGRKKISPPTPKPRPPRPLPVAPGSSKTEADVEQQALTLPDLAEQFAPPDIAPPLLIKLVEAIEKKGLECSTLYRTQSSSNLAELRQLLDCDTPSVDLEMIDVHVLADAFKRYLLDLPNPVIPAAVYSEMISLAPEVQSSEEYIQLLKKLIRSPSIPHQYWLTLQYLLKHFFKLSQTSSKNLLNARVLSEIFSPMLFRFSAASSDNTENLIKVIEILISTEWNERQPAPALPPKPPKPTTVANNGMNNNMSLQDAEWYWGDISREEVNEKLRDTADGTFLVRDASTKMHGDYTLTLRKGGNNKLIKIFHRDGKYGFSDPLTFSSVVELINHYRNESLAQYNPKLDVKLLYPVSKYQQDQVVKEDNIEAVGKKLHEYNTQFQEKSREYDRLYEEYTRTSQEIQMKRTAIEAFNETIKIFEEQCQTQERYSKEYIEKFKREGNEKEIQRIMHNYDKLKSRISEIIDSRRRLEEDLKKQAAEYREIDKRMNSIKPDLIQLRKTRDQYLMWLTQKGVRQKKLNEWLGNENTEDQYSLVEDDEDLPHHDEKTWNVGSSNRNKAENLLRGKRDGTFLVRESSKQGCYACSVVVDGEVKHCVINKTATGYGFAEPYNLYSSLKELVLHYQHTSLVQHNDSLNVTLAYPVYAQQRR

As to `CN(C)C(=O)c1ccc(NC(=O)Nc2ccc(-c3nc(N4CCOCC4)c4ccc(-c5cncc(F)c5)cc4n3)cc2)cc1` [Example 164, 4-(3-(4-(7-(5-fluoropyridin-3-yl)-4-morpholino-quinazolin-2-yl)phenyl)ureido)-N,N-dimethyl-benzamide], the IC50 (on mTOR kinase; in experiment [1]) was less than 50 nM in each case.

`Cc1ncccc1-c1ccc2c(N3CCOCC3)nc(-c3ccc(NC(=O)Nc4ccc(C(=O)N(C)C)cc4)cc3)nc2c1` [Example 165, N,N-dimethyl-4-(3-(4-(7-(2-methylpyridin-3-yl)-4-morpholino-quinazolin-2-yl)phenyl)ureido)-benzamide]: the IC50 (on mTOR kinase; in experiment [1]) was less than 50 nM each time.

Regarding `Cc1ccc(-c2ccc3c(N4CCOCC4)nc(-c4ccc(NC(=O)Nc5ccc(C(=O)N(C)C)cc5F)cc4)nc3c2)cn1` [Example 166, 3-fluoro-N,N-dimethyl-4-(3-(4-(7-(6-methylpyridin-3-yl)-4-morpholino-quinazolin-2-yl)phenyl)ureido)-benzamide], the IC50 (at mTOR kinase; in experiment [1]) was less than 50 nM throughout.

Regarding `Cc1ncccc1-c1ccc2c(N3CCOCC3)nc(-c3ccc(NC(=O)Nc4ccc(C(=O)N(C)C)cc4F)cc3)nc2c1` [Example 167, 3-fluoro-N,N-dimethyl-4-(3-(4-(7-(2-methylpyridin-3-yl)-4-morpholino-quinazolin-2-yl)phenyl)ureido)-benzamide], the IC50 (at mTOR kinase; in experiment [1]) was less than 50 nM each time.

For the compound `CN(C)C(=O)c1ccc(NC(=O)Nc2ccc(-c3nc(N4CCOCC4)c4ccc(-c5ccccn5)cc4n3)cc2)c(F)c1` [Example 168, 3-fluoro-N,N-dimethyl-4-(3-(4-(4-morpholino-7-(pyridin-2-yl)quinazolin-2-yl)phenyl)ureido)-benzamide], the IC50 (at mTOR kinase; in experiment [1]) was less than 50 nM throughout.

For `COc1ccncc1-c1ccc2c(N3CCOCC3)nc(-c3ccc(NC(=O)Nc4ccc(C(=O)N(C)C)cc4)cc3)nc2c1` [Example 169, 4-(3-(4-(7-(4-methoxypyridin-3-yl)-4-morpholino-quinazolin-2-yl)phenyl)ureido)-N,N-dimethyl-benzamide], the IC50 (at mTOR kinase; in experiment [1]) was less than 50 nM throughout.

On to `COc1ccc(-c2ccc3c(N4CCOCC4)nc(-c4ccc(NC(=O)Nc5ccc(C(=O)N(C)C)cc5F)cc4)nc3c2)cn1` [Example 170, 3-fluoro-4-(3-(4-(7-(6-methoxypyridin-3-yl)-4-morpholino-quinazolin-2-yl)phenyl)ureido)-N,N-dimethyl-benzamide], for which the values for the IC50 (at mTOR kinase; in experiment [1]) were 50 to 200 nM and less than 50 nM, respectively.

Regarding `CN(C)C(=O)c1ccc(NC(=O)Nc2ccc(-c3nc(N4CCOCC4)c4ccc(-c5ccco5)cc4n3)cc2)c(Cl)c1` [Example 171, 3-chloro-4-(3-(4-(7-(furan-2-yl)-4-morpholino-quinazolin-2-yl)phenyl)ureido)-N,N-dimethyl-benzamide], the IC50 (on mTOR kinase; in experiment [1]) was 201 to 10000 nM throughout.

Take `CN(C)C(=O)c1ccc(NC(=O)Nc2ccc(-c3nc(N4CCOCC4)c4ccc(-c5cnn(C)c5)cc4n3)cn2)c(F)c1` [Example 172, 3-fluoro-N,N-dimethyl-4-(3-(5-(7-(1-methyl-1H-pyrazol-4-yl)-4-morpholino-quinazolin-2-yl)pyridin-2-yl)ureido)-benzamide]: the IC50 at mTOR kinase was 201 to 10000 nM; in experiment [1], less than 50 nM.

In the case of `CN(C)C(=O)c1ccc(NC(=O)Nc2ccc(-c3nc(N4CCOCC4)c4cc(F)c(-c5cccnc5)cc4n3)cc2)c(F)c1` [Example 173, 3-fluoro-4-(3-(4-(6-fluoro-4-morpholino-7-(pyridin-3-yl)quinazolin-2-yl)phenyl)ureido)-N,N-dimethyl-benzamide], the IC50 (at mTOR kinase; in experiment [1]) was less than 50 nM throughout.

`CN(C)C(=O)c1ccc(NC(=O)Nc2ccc(-c3nc(N4CCOCC4)c4cc(F)c(-c5cncnc5)cc4n3)cc2)c(F)c1` [Example 174, 3-fluoro-4-(3-(4-(6-fluoro-4-morpholino-7-(pyrimidin-5-yl)quinazolin-2-yl)phenyl)ureido)-N,N-dimethyl-benzamide]: the IC50 was less than 50 nM on mTOR kinase and 50 to 200 nM in experiment [1].

For the compound `CN(C)C(=O)c1ccc(NC(=O)Nc2ccc(-c3nc(N4CCOCC4)c4cc(F)c(-c5cccnc5)cc4n3)cn2)cc1` [Example 175, 4-(3-(5-(6-fluoro-4-morpholino-7-(pyridin-3-yl)quinazolin-2-yl)pyridin-2-yl)ureido)-N,N-dimethyl-benzamide], the IC50 is 50 to 200 nM on mTOR kinase and less than 50 nM in experiment [1].

Turning to `CN(C)C(=O)c1ccc(NC(=O)Nc2ccc(-c3nc(N4CCOCC4)c4cc(F)c(-c5cncnc5)cc4n3)cn2)cc1` [Example 176, 4-(3-(5-(6-fluoro-4-morpholino-7-(pyrimidin-5-yl)quinazolin-2-yl)pyridin-2-yl)ureido)-N,N-dimethyl-benzamide], the IC50 is 50 to 200 nM at mTOR kinase and less than 50 nM in experiment [1].

Consider `CN(C)C(=O)c1ccc(NC(=O)Nc2ccc(-c3nc(N4CCOCC4)c4ccc(-c5ccc(N)nc5)cc4n3)cc2)cc1` [Example 177, 4-(3-(4-(7-(6-aminopyridin-3-yl)-4-morpholino-quinazolin-2-yl)phenyl)ureido)-N,N-dimethyl-benzamide], for which the IC50 (on mTOR kinase; in experiment [1]) was less than 50 nM in each case.

On to `CN(C)C(=O)c1ccc(NC(=O)Nc2ccc(-c3nc(N4CCOCC4)c4ccc(-c5ccc(N)nc5)cc4n3)cc2)c(F)c1` [Example 178, 4-(3-(4-(7-(6-aminopyridin-3-yl)-4-morpholino-quinazolin-2-yl)phenyl)ureido)-3-fluoro-N,N-dimethyl-benzamide], for which the IC50 at mTOR kinase was less than 50 nM; in experiment [1], 50 to 200 nM.

As to `COc1ccc2c(N3CCOCC3)nc(-c3ccc(NC(=O)Nc4ccc(C(=O)N(C)C)cc4)c(F)c3)nc2c1` [Example 182, 4-(3-(2-fluoro-4-(7-methoxy-4-morpholino-quinazolin-2-yl)phenyl)ureido)-N,N-dimethyl-benzamide], the IC50 is less than 50 nM at mTOR kinase and 50 to 200 nM in experiment [1].

Regarding `CN(C)CCNC(=O)c1ccc(NC(=O)Nc2ccc(-c3nc(N4CCOCC4)c4ccc(-c5cncnc5)cc4n3)cc2)cc1` [Example 192, N-(2-(dimethylamino)ethyl)-4-(3-(4-(4-morpholino-7-(pyrimidin-5-yl)quinazolin-2-yl)phenyl)ureido)-benzamide], the figures for the IC50 (on mTOR kinase; in experiment [1]) were less than 50 nM and 50 to 200 nM, respectively.

Turning to `CN1CCN(C(=O)c2ccc(NC(=O)Nc3ccc(-c4nc(N5CCOCC5)c5ccc(-c6ccncc6)cc5n4)cc3F)cc2)CC1` [Example 212, 1-(2-fluoro-4-(4-morpholino-7-(pyridin-4-yl)quinazolin-2-yl)phenyl)-3-(4-(4-methylpiperazine-1-carbonyl)phenyl)urea], the IC50 (on mTOR kinase; in experiment [1]) was 50 to 200 nM throughout.

Regarding `CN(C)C(=O)c1ccc(NC(=O)Nc2ccc(-c3nc(N4CCOCC4)c4ncc(-c5ccc(CO)o5)cc4n3)cc2F)cc1` [Example 218, 4-(3-(2-fluoro-4-(7-(5-(hydroxymethyl)furan-2-yl)-4-morpholino-pyrido[3,2-d]pyrimidin-2-yl)phenyl)ureido)-N,N-dimethyl-benzamide], the IC50 on mTOR kinase was 50 to 200 nM; in experiment [1], less than 50 nM.

For the compound `CN(C)C(=O)c1ccc(NC(=O)Nc2ccc(-c3nc(N4CCOCC4)c4ccc(-c5ccc(CO)o5)cc4n3)cc2)c(F)c1` [Example 219, 3-fluoro-4-(3-(4-(7-(5-(hydroxymethyl)furan-2-yl)-4-morpholino-quinazolin-2-yl)phenyl)ureido)-N,N-dimethyl-benzamide], the IC50 (on mTOR kinase; in experiment [1]) was 50 to 200 nM each time.

Turning to `CN(C)CCNC(=O)c1ccc(-c2ccc3c(N4CCOCC4)nc(-c4ccc(NC(=O)Nc5ccc(C(=O)N(C)C)cc5)cc4)nc3c2)o1` [Example 225, N-(2-(dimethylamino)ethyl)-5-(2-(4-(3-(4-(dimethylcarbamoyl)phenyl)ureido)phenyl)-4-morpholino-quinazolin-7-yl)furan-2-carboxamide], the values for the IC50 (at mTOR kinase; in experiment [1]) were less than 50 nM and 50 to 200 nM, respectively.

In the case of `CC(O)c1ccc(-c2ccc3c(N4CCOCC4)nc(-c4ccc(NC(=O)Nc5ccc(C(=O)N(C)C)cc5F)cc4)nc3c2)o1` (centres unmarked) [Example 227, 3-fluoro-4-(3-(4-(7-(5-(1-hydroxyethyl)furan-2-yl)-4-morpholino-quinazolin-2-yl)phenyl)ureido)-N,N-dimethyl-benzamide], the IC50 at mTOR kinase lay in the range of 50 to 200 nM; in experiment [1], 201 to 10000 nM.

Take `CN(C)C(=O)c1ccc(NC(=O)Nc2ccc(-c3nc(N4CCOCC4)c4ccc(-c5ccc(C(=O)N(C)C)o5)cc4n3)cc2)cc1` [Example 229, 5-(2-(4-(3-(4-(dimethylcarbamoyl)phenyl)ureido)phenyl)-4-morpholine-quinazolin-7-yl)-N,N-dimethylfuran-2-carboxamide]: the IC50 (at mTOR kinase; in experiment [1]) was less than 50 nM in each case.

For the compound `CN(C)C(=O)c1ccc(NC(=O)Nc2ccc(-c3nc(N4CCOCC4)c4ncc(-c5cnc(N(C)C)nc5)cc4n3)cc2)cc1` [Example 230, 4-(3-(4-(7-(2-(dimethylamino)pyrimidin-5-yl)-4-morpholino-pyrido[3,2-d]pyrimidin-2-yl)phenyl)ureido)-N,N-dimethyl-benzamide], the IC50 (at mTOR kinase; in experiment [1]) was less than 50 nM in each case.

As for `CN(C)C(=O)c1ccc(NC(=O)Nc2ccc(-c3nc(N4CCOCC4)c4ccc(-c5cnc(N(C)C)nc5)cc4n3)cc2F)cc1` [Example 231, 4-(3-(4-(7-(2-(dimethylamino)pyrimidin-5-yl)-4-morpholino-quinazolin-2-yl)-2-fluorophenyl)ureido)-N,N-dimethyl-benzamide], the IC50 was less than 50 nM on mTOR kinase and 50 to 200 nM in experiment [1].
